ChEMBL document CHEMBL1909046, “DrugMatrix in vitro pharmacology data”

Experiments:
[1] = target: T1, Alpha-1A adrenergic receptor (Rattus norvegicus, UniProt P43140); test: DRUGMATRIX: Alpha-1A adrenergic receptor radioligand binding (ligand: prazosin); format: cell membranes, Wistar, Submaxillary gland, Membrane; details: Not Active = under 50% inhibition at 10 µM
T1 sequence (P43140 whole entry): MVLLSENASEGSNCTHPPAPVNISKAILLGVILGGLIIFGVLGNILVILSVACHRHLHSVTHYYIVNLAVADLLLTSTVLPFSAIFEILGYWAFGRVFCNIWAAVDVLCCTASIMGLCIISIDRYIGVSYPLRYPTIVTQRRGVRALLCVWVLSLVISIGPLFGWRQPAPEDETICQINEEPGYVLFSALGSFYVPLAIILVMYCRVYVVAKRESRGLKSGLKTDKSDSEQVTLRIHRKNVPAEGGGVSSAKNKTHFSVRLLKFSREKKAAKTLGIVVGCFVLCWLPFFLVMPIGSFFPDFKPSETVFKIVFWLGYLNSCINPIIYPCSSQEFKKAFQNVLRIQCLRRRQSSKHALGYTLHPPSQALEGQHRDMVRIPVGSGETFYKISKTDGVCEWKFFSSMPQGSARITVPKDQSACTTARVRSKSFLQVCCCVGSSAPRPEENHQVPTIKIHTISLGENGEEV

[2] = target: T2, C-X-C chemokine receptor type 1 (Homo sapiens, UniProt P25024); note: in other assays of this panel Not Active means under 50% inhibition at 10 µM
T2 sequence (P25024 whole entry): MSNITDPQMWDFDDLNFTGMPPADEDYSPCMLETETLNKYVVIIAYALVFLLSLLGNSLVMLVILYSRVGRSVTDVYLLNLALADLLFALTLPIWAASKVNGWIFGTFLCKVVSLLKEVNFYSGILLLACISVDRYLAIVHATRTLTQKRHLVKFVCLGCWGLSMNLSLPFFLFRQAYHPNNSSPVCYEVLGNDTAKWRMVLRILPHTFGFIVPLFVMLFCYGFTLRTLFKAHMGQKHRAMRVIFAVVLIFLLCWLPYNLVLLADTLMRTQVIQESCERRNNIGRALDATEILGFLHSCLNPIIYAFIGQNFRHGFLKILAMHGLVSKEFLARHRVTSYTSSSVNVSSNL

[3] = target: Epidermal growth factor receptor (Homo sapiens, UniProt P00533); test: DRUGMATRIX: Protein Tyrosine Kinase, EGF Receptor enzyme inhibition (substrate: Poly(Glu:Tyr)); format: cell-based, Insect cells; details: Not Active = under 50% inhibition at 10 µM
Sequence of Epidermal growth factor receptor (P00533 whole entry): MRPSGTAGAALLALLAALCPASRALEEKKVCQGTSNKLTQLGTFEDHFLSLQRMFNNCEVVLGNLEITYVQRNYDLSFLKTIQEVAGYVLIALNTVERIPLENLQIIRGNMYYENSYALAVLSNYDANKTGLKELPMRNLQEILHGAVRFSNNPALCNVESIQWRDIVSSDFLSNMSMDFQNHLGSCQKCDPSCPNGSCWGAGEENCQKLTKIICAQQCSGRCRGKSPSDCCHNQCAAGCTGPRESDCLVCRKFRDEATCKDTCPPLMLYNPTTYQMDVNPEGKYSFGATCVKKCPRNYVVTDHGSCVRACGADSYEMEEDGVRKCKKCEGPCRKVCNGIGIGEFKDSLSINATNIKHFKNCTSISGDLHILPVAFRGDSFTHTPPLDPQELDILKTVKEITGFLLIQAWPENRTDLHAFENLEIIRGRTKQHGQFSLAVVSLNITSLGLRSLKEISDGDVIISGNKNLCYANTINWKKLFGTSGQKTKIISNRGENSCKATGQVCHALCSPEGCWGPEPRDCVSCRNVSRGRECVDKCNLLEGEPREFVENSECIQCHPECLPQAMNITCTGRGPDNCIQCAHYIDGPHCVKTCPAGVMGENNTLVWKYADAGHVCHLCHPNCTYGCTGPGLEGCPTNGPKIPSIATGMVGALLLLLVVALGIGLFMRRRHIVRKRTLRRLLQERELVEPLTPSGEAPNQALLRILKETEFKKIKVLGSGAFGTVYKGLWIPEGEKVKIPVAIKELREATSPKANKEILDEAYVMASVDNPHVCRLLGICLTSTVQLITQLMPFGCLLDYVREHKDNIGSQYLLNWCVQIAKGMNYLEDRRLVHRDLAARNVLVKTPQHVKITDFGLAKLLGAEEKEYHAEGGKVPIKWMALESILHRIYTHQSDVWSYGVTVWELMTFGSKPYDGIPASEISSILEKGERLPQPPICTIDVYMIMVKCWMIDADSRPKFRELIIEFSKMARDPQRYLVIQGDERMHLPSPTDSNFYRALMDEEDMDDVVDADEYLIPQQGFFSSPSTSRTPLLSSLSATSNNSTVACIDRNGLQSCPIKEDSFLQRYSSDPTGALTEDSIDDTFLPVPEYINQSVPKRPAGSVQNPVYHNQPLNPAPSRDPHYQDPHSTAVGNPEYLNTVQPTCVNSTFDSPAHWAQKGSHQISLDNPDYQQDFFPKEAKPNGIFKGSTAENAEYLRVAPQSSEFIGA

[4] = DRUGMATRIX: Leukotriene, BLT (LTB4) radioligand binding (ligand: [3H]LTB4); format: cell membranes, Membrane; details: u-937; Not Active = under 50% inhibition at 10 µM
Melanocortin receptor 3 = Melanocortin receptor 3 (Homo sapiens, UniProt P41968); format: cell membranes, HEK293, Membrane; details: hek293; note: in other assays of this panel Not Active means under 50% inhibition at 10 µM
Sequence of Melanocortin receptor 3 (P41968 whole entry): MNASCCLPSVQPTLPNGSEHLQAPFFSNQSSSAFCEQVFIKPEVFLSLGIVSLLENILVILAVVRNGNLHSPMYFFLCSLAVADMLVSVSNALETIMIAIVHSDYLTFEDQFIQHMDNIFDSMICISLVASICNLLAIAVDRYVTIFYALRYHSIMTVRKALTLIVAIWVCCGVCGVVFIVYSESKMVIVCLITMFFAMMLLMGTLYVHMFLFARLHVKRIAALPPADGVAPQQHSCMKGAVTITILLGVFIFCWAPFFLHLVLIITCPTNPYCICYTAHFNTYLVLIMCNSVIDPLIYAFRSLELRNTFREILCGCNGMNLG

Calcitonin receptor = target: T3, Calcitonin receptor (Homo sapiens, UniProt P30988); format: cell membranes, Membrane; details: t47d; note: in other assays of this panel Not Active means under 50% inhibition at 10 µM
T3 sequence (P30988 whole entry): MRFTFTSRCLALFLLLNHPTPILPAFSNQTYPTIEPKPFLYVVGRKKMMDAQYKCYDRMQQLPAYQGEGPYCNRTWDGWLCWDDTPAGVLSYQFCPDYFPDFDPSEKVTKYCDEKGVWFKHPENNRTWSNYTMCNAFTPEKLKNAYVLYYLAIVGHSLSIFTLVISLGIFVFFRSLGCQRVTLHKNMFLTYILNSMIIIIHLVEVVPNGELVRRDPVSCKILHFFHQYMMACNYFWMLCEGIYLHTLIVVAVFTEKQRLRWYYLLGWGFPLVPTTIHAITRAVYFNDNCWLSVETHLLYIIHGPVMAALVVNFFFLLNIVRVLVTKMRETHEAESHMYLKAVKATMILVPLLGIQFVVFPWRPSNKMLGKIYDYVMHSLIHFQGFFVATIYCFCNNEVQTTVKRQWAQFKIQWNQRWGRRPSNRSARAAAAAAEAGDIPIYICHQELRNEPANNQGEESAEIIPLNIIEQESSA

Cathepsin G = target: T4, Cathepsin G (Homo sapiens, UniProt P08311); format: tissue-based; details: neutrophil;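 note: inhibition of Cathepsin G enzyme activity, tested on an AMC-conjugated peptide substrate; in other assays of this panel Not Active means under 50% inhibition at 10 µM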
T4 sequence (P08311 whole entry): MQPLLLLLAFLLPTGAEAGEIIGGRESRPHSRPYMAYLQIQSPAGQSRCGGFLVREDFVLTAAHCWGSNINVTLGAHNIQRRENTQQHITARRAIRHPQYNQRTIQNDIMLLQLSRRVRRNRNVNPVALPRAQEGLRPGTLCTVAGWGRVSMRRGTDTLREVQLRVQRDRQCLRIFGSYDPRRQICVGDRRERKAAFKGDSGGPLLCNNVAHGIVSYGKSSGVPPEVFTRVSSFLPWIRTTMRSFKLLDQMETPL

Glycine receptor = Glycine receptor (Rattus norvegicus, UniProt P22771+P24524+P07727+P20781); format: cell membranes, Wistar, Spinal cord, Membrane; note: in other assays of this panel Not Active means under 50% inhibition at 10 µM

| Structure (SMILES) | IC50 [1] | IC50 [2] | IC50 ([3]; insect cells) | IC50 [4] | Ki [4] | IC50 (Melanocortin receptor 3) | IC50 (Calcitonin receptor) | IC50 (Cathepsin G) | IC50 (Glycine receptor) | IC50 ([1]; read-out: IC50) [nM] | Ki ([1]; read-out: Ki) [nM] | IC50 ([3]; read-out: IC50) [nM] |
| --- | --- | --- | --- | --- | --- | --- | --- | --- | --- | --- | --- | --- |
| C=CCc1ccc(O)c(OC)c1 [EUGENOL] | Not Active | Not Active | Not Active | Not Active | Not Active | Not Active | Not Active | Not Active | Not Active | – | – | – |
| CC(C(=O)O)c1cccc(Oc2ccccc2)c1 (stereo not given) [FENOPROFEN] | Not Active | Not Active | Not Active | Not Active | Not Active | Not Active | Not Active | Not Active | Not Active | – | – | – |
| CC(C)(C)NC(=O)[C@H]1CC[C@H]2[C@@H]3CC[C@H]4NC(=O)C=C[C@]4(C)[C@H]3CC[C@]12C [FINASTERIDE] | Not Active | Not Active | Not Active | Not Active | Not Active | Not Active | Not Active | Not Active | Not Active | – | – | – |
| COc1ccc2c3c1O[C@H]1C[C@@H](O)C=C[C@@]31CCN(C)C2 [GALANTAMINE] | Not Active | Not Active | Not Active | Not Active | Not Active | Not Active | Not Active | Not Active | Not Active | – | – | – |
| Nc1ccn([C@@H]2O[C@H](CO)[C@@H](O)C2(F)F)c(=O)n1 [GEMCITABINE] | Not Active | Not Active | Not Active | Not Active | Not Active | Not Active | Not Active | Not Active | Not Active | – | – | – |
| CC(C)=CCC/C(C)=C/CO [GERANIOL] | Not Active | Not Active | Not Active | Not Active | Not Active | Not Active | Not Active | Not Active | Not Active | – | – | – |
| N=C(N)NC(=O)Cc1c(Cl)cccc1Cl [GUANFACINE] | – | Not Active | Not Active | Not Active | Not Active | Not Active | Not Active | Not Active | Not Active | 1350 | 546 | – |
| Oc1c(Cl)cc(Cl)c(Cl)c1Cc1c(O)c(Cl)cc(Cl)c1Cl [HEXACHLOROPHENE] | Not Active | Not Active | – | Not Active | Not Active | Not Active | Not Active | Not Active | Not Active | – | – | 749 |
| NNc1nncc2ccccc12 [HYDRALAZINE] | Not Active | Not Active | Not Active | Not Active | Not Active | Not Active | Not Active | Not Active | Not Active | – | – | – |
| CC(=O)[C@@]1(O)CC[C@H]2[C@@H]3CCC4=CC(=O)CC[C@]4(C)[C@H]3CC[C@@]21C [HYDROXYPROGESTERONE] | Not Active | Not Active | Not Active | Not Active | Not Active | Not Active | Not Active | Not Active | Not Active | – | – | – |
| COC1=C(OC)C(=O)C(CCCCCCCCCCO)=C(C)C1=O [IDEBENONE] | Not Active | Not Active | Not Active | Not Active | Not Active | Not Active | Not Active | Not Active | Not Active | – | – | – |
